Source: the supplement of paper PMC7840683
± gives the standard deviation of the averaged measurements.

Test system: HepaRG
Experiment: LDH release cytotoxicity, % of total lysis control; higher = more cytotoxic
Settings: 48 h
Outline: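 On collagen I-coated 96-well plates, single-lot HepaRG cells were exposed for 48 h, in duplicate, to eight-point half-log series of test chemicals beginning at 100 µM. The exposure medium was serum-free induction medium with 0.5% DMSO, and total lysis wells got 0.1% Triton X. Resorufin fluorescence from the CytoTox-ONE reaction, read on a Tecan Safire, reported LDH in 50 µL of spent medium. Percent cytotoxicity came from normalization to on-plate vehicle and total lysis controls, averaged over the duplicates.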

CCC1OC(=O)C(C)C(OC2CC(C)(OC)C(O)C(C)O2)C(C)C(OC2OC(C)CC(N(C)C)C2O)C(C)(O)CC(C)C(=O)C(C)C(O)C1(C)O (stereo unspecified) [Erythromycin]
Settings	LDH release cytotoxicity [%]
0.02356 µM	-1.71 ± 1.6
0.0745 µM	-2.96 ± 1
0.23559 µM	-1.94 ± 1
0.745 µM	-3.63 ± 0.23
2.3559 µM	-3.02 ± 1.1
7.45 µM	-2.85 ± 0.59
23.559 µM	-1.9 ± 0.73
74.5 µM	-0.102 ± 1.1

CC(C)C(C(=O)OC(C#N)c1cccc(Oc2ccccc2)c1)c1ccc(Cl)cc1 (stereo unspecified) [Esfenvalerate]
Settings	LDH release cytotoxicity [%]
0.03162 µM	-0.0612 ± 0.44
0.1 µM	-1.61 ± 0.76
0.3162278 µM	-0.46 ± 0.66
1 µM	-0.419 ± 0.79
3.16228 µM	-1.05 ± 0.74
10 µM	0.166 ± 0.61
31.6228 µM	-0.322 ± 0.82
100 µM	-0.488 ± 0.23

CC12CCC3c4ccc(O)cc4CCC3C1CCC2=O (stereo unspecified) [Estrone]
Settings	LDH release cytotoxicity [%]
0.03162 µM	-1.21 ± 0.2
0.1 µM	-1.61 ± 0.43
0.3162278 µM	-1.15 ± 0.68
1 µM	-2.36 ± 0.6
3.16228 µM	-2.37 ± 0.056
10 µM	-2.52 ± 0.45
31.6228 µM	-1.9 ± 0.29
100 µM	0.127 ± 1.1

NCCO [Ethanolamine]
Settings	LDH release cytotoxicity [%]
0.03162 µM	-2.14 ± 1.3
0.1 µM	-2 ± 1.6
0.3162278 µM	-1.29 ± 0.49
1 µM	-1.55 ± 0.046
3.16228 µM	-0.642 ± 0.088
10 µM	-0.777 ± 0.073
31.6228 µM	-0.101 ± 0.76
100 µM	0.0783 ± 0.76

O=P(O)(O)CCCl [Ethephon]
Settings	LDH release cytotoxicity [%]
0.03162 µM	-2.07 ± 0.56
0.1 µM	-1.57 ± 0.61
0.3162278 µM	-2.29 ± 0.67
1 µM	-1.94 ± 0.34
3.16228 µM	-2.12 ± 0.63
10 µM	-1.39 ± 0.53
31.6228 µM	-0.276 ± 0.008
100 µM	0.34 ± 0.033

CCOP(=S)(OCC)SCSP(=S)(OCC)OCC [Ethion]
Settings	LDH release cytotoxicity [%]
0.03162 µM	-0.671 ± 0.69
0.1 µM	-1.31 ± 0.3
0.3162278 µM	-1.54 ± 0.12
1 µM	-1.6 ± 0.47
3.16228 µM	-1.07 ± 0.078
10 µM	-1.06 ± 0.23
31.6228 µM	-2.53 ± 0.069
100 µM	-0.532 ± 0.36

CCOC1Oc2ccc(OS(C)(=O)=O)cc2C1(C)C (stereo unspecified) [Ethofumesate]
Settings	LDH release cytotoxicity [%]
0.031623 µM	-1.31 ± 0.47
0.1 µM	-1.58 ± 2.8
0.316228 µM	-1.7 ± 0.31
1 µM	-3.38 ± 0.38
3.16228 µM	-2.65 ± 1.5
10 µM	-3.76 ± 1.5
31.6228 µM	-3.45 ± 0.47
100 µM	12.4 ± 2.7

CCCSP(=O)(OCC)SCCC [Ethoprop]
Settings	LDH release cytotoxicity [%]
0.0325715 µM	-0.633 ± 0.18
0.103 µM	-0.669 ± 0.35
0.325715 µM	-0.697 ± 0.094
1.03 µM	-0.356 ± 0.87
3.25715 µM	-0.537 ± 0.42
10.3 µM	-0.345 ± 0.28
32.5715 µM	0.55 ± 0.93
103 µM	2.97 ± 0.41

CCOc1ccc2c(c1)C(C)=CC(C)(C)N2 [Ethoxyquin]
Settings	LDH release cytotoxicity [%]
0.03162 µM	-1.26 ± 0.72
0.1 µM	-0.577 ± 0.97
0.3162278 µM	-1.06 ± 0.6
1 µM	-1.45 ± 1.1
3.16228 µM	-1.65 ± 0.13
10 µM	-1.77 ± 0.58
31.6228 µM	-1.67 ± 0.43
100 µM	-0.112 ± 2.2

CCCC(=O)OCC [Ethyl butyrate]
Settings	LDH release cytotoxicity [%]
0.03162 µM	-2.73 ± 0.033
0.1 µM	-1.76 ± 1.1
0.3162278 µM	-1.67 ± 0.64
1 µM	-2.36 ± 0.58
3.16228 µM	-1.92 ± 0.24
10 µM	-0.558 ± 0.26
31.6228 µM	0.726 ± 0.71
100 µM	0.69 ± 0.89

CCCCCCC(=O)OCC [Ethyl heptanoate]
Settings	LDH release cytotoxicity [%]
0.03162 µM	-1.33 ± 0.12
0.1 µM	-1.43 ± 1
0.3162278 µM	-1.58 ± 0.63
1 µM	-1.97 ± 0.28
3.16228 µM	-1.57 ± 0.64
10 µM	-1.28 ± 1.6
31.6228 µM	0.37 ± 1
100 µM	3.07 ± 1.3

CCOCCOC(C)=O [Ethylene glycol monoethyl ether acetate]
Settings	LDH release cytotoxicity [%]
0.03162 µM	-1.19 ± 0.03
0.1 µM	-0.486 ± 0.16
0.3162278 µM	0.156 ± 1.3
1 µM	0.488 ± 0.7
3.16228 µM	0.0494 ± 0.028
10 µM	0.917 ± 0.22
31.6228 µM	0.221 ± 0.35
100 µM	1.51 ± 0.72

OCCO [Ethylene glycol]
Settings	LDH release cytotoxicity [%]
0.0317809 µM	-0.738 ± 0.2
0.1005 µM	-1.93 ± 0.58
0.317809 µM	-2.04 ± 0.33
1.005 µM	-2.45 ± 1.9
3.17809 µM	-1.91 ± 0.87
10.05 µM	-1.42 ± 0.5
31.7809 µM	-1.26 ± 1
100.5 µM	0.328 ± 0.82

S=C1NCCN1 [Ethylene thiourea]
Settings	LDH release cytotoxicity [%]
0.03162 µM	-0.742 ± 0.12
0.1 µM	-0.402 ± 0.026
0.3162278 µM	-0.462 ± 0.31
1 µM	-0.602 ± 0.47
3.16228 µM	-0.544 ± 0.16
10 µM	0.0401 ± 0.0016
31.6228 µM	0.537 ± 0.76
100 µM	0.155 ± 1.9

CCOC(=O)c1ccc(O)cc1 [Ethylparaben]
Settings	LDH release cytotoxicity [%]
0.03162 µM	-0.474 ± 0.19
0.1 µM	-1.24 ± 0.2
0.3162278 µM	-1.05 ± 0.26
1 µM	-1.23 ± 0.42
3.16228 µM	-0.851 ± 0.3
10 µM	-1.05 ± 0.62
31.6228 µM	-0.271 ± 1.2
100 µM	0.163 ± 0.13

CCOc1ccc(C(C)(C)COCc2cccc(Oc3ccccc3)c2)cc1 [Etofenprox]
Settings	LDH release cytotoxicity [%]
0.03162 µM	-2.22 ± 0.67
0.1 µM	-3.48 ± 0.5
0.3162278 µM	-2.37 ± 0.096
1 µM	-2.59 ± 0.48
3.16228 µM	-2.77 ± 0.28
10 µM	-2.63 ± 0.86
31.6228 µM	-2.47 ± 0.33
100 µM	-1.82 ± 0.12

CCOc1cc(C(C)(C)C)ccc1C1COC(c2c(F)cccc2F)=N1 (stereo unspecified) [Etoxazole]
Settings	LDH release cytotoxicity [%]
0.020871 µM	-3.18 ± 0.75
0.066 µM	-1.79 ± 0.038
0.20871 µM	-2.56 ± 0.37
0.66 µM	-3.05 ± 0.51
2.0871 µM	-2.64 ± 0.86
6.6 µM	-2.88 ± 0.43
20.871 µM	-2.37 ± 0.075
66 µM	5.91 ± 0.27
